# Results taken from ChEMBL document CHEMBL5365457, “Selective HDAC3 Inhibitors with Potent In Vivo Antitumor Efficacy against Triple-Negative Breast Cancer” (J Med Chem, 2023).
# Active and inactive are the calls of the source. The calls are words filed in the database; no cut-off is given here.
# Key:
# Histone deacetylase 3 = Histone deacetylase 3 (Homo sapiens, UniProt O15379); test: Inhibition of human recombinant HDAC3 at 1 uM measured after 30 mins by fluorescence based microplate assay relative to control
# [1] = Half life in Wistar rat at 15 mg/kg, ip measured upto 24 hrs by HPLC analysis; type: ADME, organism-based; settings: in vivo
# [2] = Apparent oral clearance in Wistar rat at 5 mg/kg, ip measured upto 24 hrs by HPLC analysis; type: ADME, organism-based; settings: in vivo
# [3] = AUMC (0 to infinity) in Wistar rat at 5 mg/kg, ip measured upto 24 hrs by HPLC analysis; type: ADME, organism-based; settings: in vivo
# [4] = target: T1, Protein deacetylase HDAC6 (Homo sapiens, UniProt Q9UBN7); test: Inhibition of human recombinant HDAC6 incubated for 10 mins by fluorescence based microplate analysis
# T1 sequence (Q9UBN7 whole entry): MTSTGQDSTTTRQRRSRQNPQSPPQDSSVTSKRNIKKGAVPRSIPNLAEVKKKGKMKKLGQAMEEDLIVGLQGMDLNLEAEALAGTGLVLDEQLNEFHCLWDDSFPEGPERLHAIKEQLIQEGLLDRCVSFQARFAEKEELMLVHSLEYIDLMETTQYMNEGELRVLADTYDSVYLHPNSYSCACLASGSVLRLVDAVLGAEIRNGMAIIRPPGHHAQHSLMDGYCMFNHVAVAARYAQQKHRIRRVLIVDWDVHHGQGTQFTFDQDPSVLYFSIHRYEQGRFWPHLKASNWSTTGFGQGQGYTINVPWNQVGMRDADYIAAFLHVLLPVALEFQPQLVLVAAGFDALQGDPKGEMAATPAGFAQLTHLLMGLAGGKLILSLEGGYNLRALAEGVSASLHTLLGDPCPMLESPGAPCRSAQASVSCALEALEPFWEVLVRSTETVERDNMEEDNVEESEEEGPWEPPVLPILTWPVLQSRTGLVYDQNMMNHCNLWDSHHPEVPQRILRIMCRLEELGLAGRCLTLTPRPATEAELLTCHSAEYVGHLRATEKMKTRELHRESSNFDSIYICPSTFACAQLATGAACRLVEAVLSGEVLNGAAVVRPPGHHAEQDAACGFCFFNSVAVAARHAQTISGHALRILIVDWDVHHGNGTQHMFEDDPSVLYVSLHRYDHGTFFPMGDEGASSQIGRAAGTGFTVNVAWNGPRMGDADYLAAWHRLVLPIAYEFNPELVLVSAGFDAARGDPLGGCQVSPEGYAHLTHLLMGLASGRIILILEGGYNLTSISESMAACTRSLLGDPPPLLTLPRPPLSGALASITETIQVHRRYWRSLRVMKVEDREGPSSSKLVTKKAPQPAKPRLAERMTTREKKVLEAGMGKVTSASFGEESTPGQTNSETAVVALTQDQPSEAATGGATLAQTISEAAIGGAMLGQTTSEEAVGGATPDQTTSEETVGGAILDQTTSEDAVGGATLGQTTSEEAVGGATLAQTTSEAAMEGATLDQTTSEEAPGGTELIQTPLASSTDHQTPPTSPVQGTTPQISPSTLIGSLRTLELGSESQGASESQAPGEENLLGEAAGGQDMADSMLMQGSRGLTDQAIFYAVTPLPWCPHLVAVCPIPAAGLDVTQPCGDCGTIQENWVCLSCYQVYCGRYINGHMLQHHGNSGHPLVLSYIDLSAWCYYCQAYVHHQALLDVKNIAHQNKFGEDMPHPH
# [5] = Selectivity ratio of IC50 for cytotoxicity against human HEK293 cells assessed as inhibition of cell growth to IC50 for cytotoxicity against mouse 4T1 cells assessed as inhibition of cell growth; type: toxicity, cell-based; settings: HEK293 cells versus 4T1 cells, read-out: Ratio IC50
# 4T1 [6] = test: Induction of apoptosis in mouse 4T1 cells assessed as increase in cleaved caspase-3 level by Western blot analysis; type: functional, cell-based; settings: dose 1.0 µM
# 4T1 [7] = test: Induction of apoptosis in mouse 4T1 cells assessed as increase caspase 3/7 level at 1 uM by Western blot analysis; type: functional, cell-based
# 4T1 [8] = test: Cell cycle arrest in mouse 4T1 cells assessed as accumulation of cells at G2/M phase at 2.75 uM incubated for 72 hrs by flow cytometry; type: functional
# [9] = Cytotoxicity against Oxaliplatin-resistant human MDA-MB-231 cell assessed as reduction in cell viability incubated for 72 hrs by MTT assay; type: functional, cell-based; settings: Oxaliplatin-resistant MDA-MB-231 cell
# [10] = Cytotoxicity against Oxaliplatin-resistant human MDA-MB-231 cell assessed as reduction in cell viability incubated for 72 hrs in presence of oxaliplatin by MTT assay; type: functional, cell-based; settings: Oxaliplatin-resistant MDA-MB-231 cell
# [11] = Metabolic stability in rat liver microsome assessed as intrinsic clearance preincubated for 5 mins followed by NADPH addition and measured after 60 mins by HPLC analysis; type: ADME; settings: liver microsomes, time 65 min, read-out: CLH
# 4T1 [12] = test: Antitumor activity against mouse 4T1 cells implanted in BALB/c mouse assessed as reduction in tumor volume at 50 to 100 mg/kg, ip administered 5 times a week for 21 days; type: functional, organism-based; settings: dose 50-100 mg/kg, time 21.0 day
# 4T1 [13] = test: Antitumor activity against mouse 4T1 cells implanted in BALB/c mouse assessed as tumor growth inhibition at 5 mg/kg, ip measured on day 7; type: functional; settings: 4T1, 168 h, time 7 day, read-out: TGI
# [14] = Toxicity in BALB/c mouse implanted with mouse 4T1 cells assessed as effect on cell shape in spleen at 5 to 15 mg/kg, ip measured after 21 days by H and E staining based assay; type: organism-based; settings: in vivo, 504 h, dose 5-15 mg/kg, time 21 day
# [15] = Toxicity in BALB/c mouse implanted with mouse 4T1 cells assessed as kidney fibrosis at 5 to 15 mg/kg, ip measured after 21 days; type: organism-based; settings: in vivo, 504 h, dose 5-15 mg/kg, time 21 day
# [16] = Toxicity in BALB/c mouse implanted with mouse 4T1 cells assessed as neutrophilic infiltration in spleen at 5 to 15 mg/kg, ip measured after 21 days; type: organism-based; settings: in vivo, 504 h, dose 5-15 mg/kg, time 21 day
# 4T1 [17] = test: Antitumor activity against mouse 4T1 cells implanted in BALB/c mouse assessed as decrease in number of lung aggregated cells at 15 mg/kg, ip measured for 7 days by H and E staining based assay; type: functional, organism-based; settings: time 7.0 day
# 4T1 [18] = test: Antitumor activity against mouse 4T1 cells implanted in BALB/c mouse assessed as reduction in lung metastasis at 5 to 15 mg/kg, ip measured for 7 days by H and E staining based assay; type: functional; set-up: scale not given: the % may be the effect or the level left; settings: dose 5-15 mg/kg, time 7 day
# 4T1 [19] = test: In-vivo inhibition of HDAC3 in ip dosed BALB/c mouse implanted with mouse 4T1 cells assessed as hyperacetylation of H3K27 level by Western blot analysis; type: functional, organism-based; settings: dose 5-15 mg/kg
# 4T1 [20] = test: Antitumor activity against mouse 4T1 cells implanted in BALB/c mouse assessed as upregulation of caspase-7 level in tumor at 5 to 15 mg/kg, ip by Western blot analysis; type: functional, organism-based; settings: dose 5-15 mg/kg
# 4T1 [21] = test: Antitumor activity against mouse 4T1 cells implanted in BALB/c mouse assessed as downregulation of Bcl-2 level in tumor at 5 to 15 mg/kg, ip by Western blot analysis; type: functional, organism-based; settings: dose 5-15 mg/kg
# 4T1 [22] = test: Antitumor activity against mouse 4T1 cells implanted in BALB/c mouse assessed as reduction in EGFR protein level in tumor at 5 to 15 mg/kg, ip by Western blot analysis; type: functional, organism-based; settings: dose 5-15 mg/kg
# Histone deacetylase 3, sequence (O15379 whole entry): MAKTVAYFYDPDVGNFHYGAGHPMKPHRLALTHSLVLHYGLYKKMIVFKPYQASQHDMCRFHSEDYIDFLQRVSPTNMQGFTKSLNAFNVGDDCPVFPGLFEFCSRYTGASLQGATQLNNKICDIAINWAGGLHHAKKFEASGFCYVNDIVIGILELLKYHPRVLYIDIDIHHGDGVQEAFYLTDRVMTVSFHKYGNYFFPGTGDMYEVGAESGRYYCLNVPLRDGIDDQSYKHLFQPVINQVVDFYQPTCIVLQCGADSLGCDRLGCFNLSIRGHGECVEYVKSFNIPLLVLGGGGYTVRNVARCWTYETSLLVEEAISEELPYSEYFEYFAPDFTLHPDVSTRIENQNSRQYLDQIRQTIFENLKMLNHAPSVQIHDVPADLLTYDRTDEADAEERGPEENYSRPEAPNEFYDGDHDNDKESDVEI
compound,measurement,setting,value
CCCNNC(=O)c1cnc(NCc2ccc(OC)cc2)cn1,inhibition,Histone deacetylase 3,> 70%
same,half-life,[1],7.2 h
same,CL/F,[2],1.15 (mg/kg)/(ug/ml).hr
same,AUMC,[3],29.08 ug/ml.hr^2
same,IC50,[4],25900 nM
same,selectivity ratio,[5],286
same,Activity,4T1 [6],Dose-Dependent Effect
same,Activity,4T1 [7],Active
same,Activity,4T1 [8],63.4%
same,IC50,[9],754 nM
same,IC50,[10],447 nM
same,microsomal CLint,[11],36.2 µL/min/mg
same,Activity,4T1 [12],Active
same,inhibition in vivo at 5 mg/kg,4T1 [13],76.2%
same,Activity,[14],Non-Toxic
same,Activity,[15],Non-Toxic
same,Activity,[16],Non-Toxic
same,Activity,4T1 [17],Active
same,Activity,4T1 [18],~90%
same,inhibition,4T1 [19],Dose-Dependent Effect
same,Activity,4T1 [20],Active
same,Activity,4T1 [21],Active
same,Activity,4T1 [22],Active
